Test results taken from ChEMBL document CHEMBL5321209, “Design, synthesis of novel benzimidazole derivatives as ENL inhibitors suppressing leukemia cells viability via downregulating the expression of MYC” (Eur J Med Chem, 2023).
pIC50, pKd: −log10 of the molar value. Calls of active or inactive are those of the source. The calls are words filed in the database; no cut-off is given here.

Assays:
[1] = target: T1, Protein ENL (Homo sapiens, UniProt Q03111); assay: Binding affinity to ENL YEATS domain (unknown origin) assessed as dissociation constant by ITC assay
T1 sequence (Q03111 whole entry): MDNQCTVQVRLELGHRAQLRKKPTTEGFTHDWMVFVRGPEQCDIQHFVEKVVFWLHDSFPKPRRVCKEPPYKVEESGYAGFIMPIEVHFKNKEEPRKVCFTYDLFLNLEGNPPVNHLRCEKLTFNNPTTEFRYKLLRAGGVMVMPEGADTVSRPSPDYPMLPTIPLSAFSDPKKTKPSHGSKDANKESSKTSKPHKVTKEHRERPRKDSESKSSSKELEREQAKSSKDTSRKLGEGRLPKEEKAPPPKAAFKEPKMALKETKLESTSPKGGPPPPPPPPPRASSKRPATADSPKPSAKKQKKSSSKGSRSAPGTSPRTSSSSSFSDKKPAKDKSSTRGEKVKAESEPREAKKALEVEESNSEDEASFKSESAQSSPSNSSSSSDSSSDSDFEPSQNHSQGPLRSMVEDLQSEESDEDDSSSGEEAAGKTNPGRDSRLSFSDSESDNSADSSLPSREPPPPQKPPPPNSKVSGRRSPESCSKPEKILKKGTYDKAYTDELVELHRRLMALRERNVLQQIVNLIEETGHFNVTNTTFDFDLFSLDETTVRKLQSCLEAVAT

[2] = target: T2, Protein ENL (Homo sapiens) (UniProt Q03111); conditions: dose 333.0 nM, time 45.0 min
T2 sequence (whole entry): T1 sequence (Q03111 whole entry)

[3] = target: T2, Protein ENL (Homo sapiens); conditions: dose 12.5 µM
Description: Binding affinity to C-terminal 6xHis-tagged ENL YEATS domain (1 to 148 residues) (unknown origin) expressed in Escherichia coli BL21(DE3) cells assessed as thermal stability by measuring change in melting temperature at 12.5 uM by SYPRO dye-based thermal shift assay

[4] = test system: MOLM-13; assay: Antiproliferative activity against human MOLM-13 cells assessed as inhibition of cell growth measured after 72 hrs by Cell Titer-Glo luminescent assay; type: functional, cell-based; conditions: MOLM-13, 72 h
[5] = target: T1, Protein ENL; assay: Inhibition of C-terminal 6xHis-tagged ENL YEATS domain (1 to 148 residues) (unknown origin) expressed in Escherichia coli BL21(DE3) cells using biotin-H3K27ace as substrate incubated for 45 mins by alpha screen assay
[6] = target: T2, Protein ENL (Homo sapiens); conditions: dose 50.0 µM
[7] = target: T2, Protein ENL (Homo sapiens); conditions: dose 6.3 µM
Description: Binding affinity to C-terminal 6xHis-tagged ENL YEATS domain (1 to 148 residues) (unknown origin) expressed in Escherichia coli BL21(DE3) cells assessed as thermal stability by measuring change in melting temperature at 6.3 uM by SYPRO dye-based thermal shift assay

[8] = test system: MOLM-13; assay: Potency index, ratio of SGC-iMLLT IC50 to test compound IC50 for antiproliferative activity against human MOLM-13 cells; type: functional
[9] = target: T2, Protein ENL (Homo sapiens); conditions: dose 111.0 nM, time 45.0 min
[10] = target: T2, Protein ENL (Homo sapiens); conditions: dose 25.0 µM
[11] = test system: MV4-11; assay: cells; conditions: Homo sapiens, MV4-11, 72 h
Description: Antiproliferative activity against human MV4-11 cells assessed as inhibition of cell growth measured after 72 hrs by Cell Titer-Glo luminescent assay

[12] = target: T1, Protein ENL; assay: Inhibition of C-terminal ENL YEATS domain (unknown origin) (M1 to A148 residues) using biotinylated peptide as substrate by alpha screen assay
[13] = target: T1, Protein ENL; assay: Binding affinity to C-terminal ENL YEATS domain (unknown origin) (M1 to A148 residues) assessed as dissociation constant by ITC assay
[14] = AUC (0 to infinity) in BALB/c mouse at 30 mg/kg, po measured after 0.5 to 24 hrs by LC-MS/MS assay; type: ADME, organism-based; design: time lower 0.5 hrs, dose 30 mg/kg, time upper 24 hrs, route po; conditions: in vivo
[15] = Cmax in BALB/c mouse at 30 mg/kg, po measured after 0.5 to 24 hrs by LC-MS/MS assay; type: ADME, organism-based; design: dose 30 mg/kg, time 0.5-24 hrs, route po; conditions: in vivo
[16] = MRT (0 to infinity) in BALB/c mouse at 30 mg/kg, po measured after 0.5 to 24 hrs by LC-MS/MS assay; type: ADME, organism-based; conditions: in vivo, time 0.5-24 hrs
[17] = Tmax in BALB/c mouse at 30 mg/kg, po measured after 0.5 to 24 hrs by LC-MS/MS assay; type: ADME, organism-based; conditions: in vivo, time 0.5-24 hrs
[18] = Half life in BALB/c mouse at 30 mg/kg, po measured after 0.5 to 24 hrs by LC-MS/MS assay; type: ADME, organism-based; conditions: in vivo, time 0.5-24 hrs
[19] = AUC (0 to t) in BALB/c mouse at 30 mg/kg, po measured after 0.5 to 24 hrs by LC-MS/MS assay; type: ADME, organism-based; design: dose 30 mg/kg, time 0.5-24 hrs, route po; conditions: in vivo
[20] = target: YEATS domain-containing protein 4 (Homo sapiens) (UniProt O95619); assay: Binding affinity recombinant GAS41 YEATS domain (15 to 159 residues) (unknown origin) assessed as thermal stability
Sequence of YEATS domain-containing protein 4 (Homo sapiens) (O95619 whole entry, the tested form may be a part): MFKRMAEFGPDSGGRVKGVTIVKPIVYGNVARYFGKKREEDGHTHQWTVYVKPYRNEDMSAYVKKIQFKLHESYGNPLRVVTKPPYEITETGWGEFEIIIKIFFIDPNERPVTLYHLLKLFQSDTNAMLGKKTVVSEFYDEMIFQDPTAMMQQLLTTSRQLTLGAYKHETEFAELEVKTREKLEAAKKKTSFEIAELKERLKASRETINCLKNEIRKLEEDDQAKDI

[21] = Cytotoxicity against HUVEC-C incubated for 72 hrs by Cell Titer-Glo luminescent assay; type: toxicity, cell-based; conditions: human
[22] = Downregulation of MYC mRNA level in human MOLM-13 cells at 5 uM incubated for 72 hrs by RT-PCR method relative to control; type: functional
[23] = test system: MRC5; assay: Cytotoxicity against human MRC5 cells incubated for 72 hrs by Cell Titer-Glo luminescent assay; type: toxicity, cell-based; conditions: mrc5, 72 h
[24] = Downregulation of MYC gene expression in human MOLM-13 cells assessed as fold increase at 5 uM incubated for 72 hrs in presence of JQ-1 by RT-PCR method; type: functional
[25] = target: T1, Protein ENL; assay: Binding affinity to C-terminal 6xHis-tagged ENL YEATS domain (1 to 148 residues) (unknown origin) expressed in Escherichia coli BL21(DE3) cells assessed as dissociation constant by SPR analysis
[26] = target: YEATS domain-containing protein 4 (Homo sapiens) (UniProt O95619); assay: Binding affinity recombinant GAS41 YEATS domain (15 to 159 residues) (unknown origin) expressed in Escherichia coli BL21(DE3) cells by SPR assay
[27] = Downregulation of MYC gene expression in human MOLM-13 cells assessed as decrease in fold change at 5 uM for 72 hrs by RT-PCR method relative to JQ-1; type: functional

## C[C@@H]1NC(=O)[C@H]([C@H](C)O)NC(=O)[C@@H](NC(=O)OCc2ccccc2)CCCCNC(=N)NCCC[C@H](C(=O)N[C@@H](CCCCNC(=O)c2cnco2)C(N)=O)NC1=O
[1]
  pKd: 4.85

## C[C@H]1CCCN1Cc1nc2cc(NC(=O)c3ccc4c(cnn4CCN4CCOCC4)c3)ccc2[nH]1
[2]
  inhibition: 99.9%
[3]
  ΔTm: 1.3 °C
[4]
  pIC50: 4.40
[5]
  pIC50: 7.84
[6]
  ΔTm: 3.5 °C
[7]
  ΔTm: 0.8 °C
[8]
  Ratio IC50: 2
[9]
  inhibition: 98.3%
[10]
  ΔTm: 2 °C

## Cc1cccc2c(=O)n(C)c3ccc(C(=O)Nc4ccc5[nH]c(CN6CCC[C@@H]6C)nc5c4)cc3c12
[2]
  inhibition: 95.6%
[5]
  pIC50: 7.33
[9]
  inhibition: 63.2%

## C[C@H]1CCCN1Cc1nc2cc(NC(=O)N3C(CO)C(O)C(O)C3CO)ccc2[nH]1 (some centres undefined)
[2]
  inhibition: 98.5%
[4]
  pIC50: < 4.00
[5]
  pIC50: 7.66
[11]
  pIC50: < 4.00
[9]
  inhibition: 79.5%

## COC(=O)c1ccc(C(=O)Nc2ccc3[nH]c(CN4CCCCC4)nc3c2)cc1
[12]
  pIC50: 5.80
[13]
  pKd: 6.12

## C[C@H]1CCCN1Cc1nc2cc(NC(=O)c3ccc4c(cnn4CCN4CC5OC(C)(C)OC5C4C4COC(C)(C)O4)c3)ccc2[nH]1 (some centres undefined)
[2]
  inhibition: 99.6%
[5]
  pIC50: 7.25
[9]
  inhibition: 89%

## C[C@H]1CCCN1Cc1nc2cc(NC(=O)c3ccc4nn(C)cc4c3)ccc2[nH]1
[2]
  inhibition: 99.6%
[5]
  pIC50: 7.11
[9]
  inhibition: 86.8%

## C[C@H]1CCCN1Cc1nc2cc(NC(=O)c3ccc4c(cnn4CCNC(=O)c4ccccc4)c3)ccc2[nH]1
[2]
  inhibition: 99%
[5]
  pIC50: 7.72
[9]
  inhibition: 86.2%

## C[C@H]1CCCN1Cc1nc2cc(NC(=O)c3ccc4c5ccccc5c(=O)n(C)c4c3)ccc2[nH]1
[2]
  inhibition: 100%
[5]
  pIC50: 7.50
[9]
  inhibition: 99.2%

## C[C@H]1CCCN1Cc1nc2cc(NC(=O)c3ccc4c(cnn4C)c3)ccc2[nH]1
[14]
  AUC(0-inf): 61 ng·h/mL
[15]
  Cmax: 33.6 ng/mL
[2]
  inhibition: 99.7%
[16]
  MRT inf: 60 min
[3]
  ΔTm: 2.2 °C
[4]
  pIC50: 4.13
[17]
  Tmax: 30 min
[18]
  half-life: 30 min
[6]
  ΔTm: 4.3 °C
[19]
  AUC(0-t): 59.8 ng·h/mL
[7]
  ΔTm: 1.4 °C
[11]
  pIC50: 4.46
[9]
  inhibition: 99.8%
[10]
  ΔTm: 3.1 °C

## Cc1nnc2ccc(C(=O)Nc3ccc4[nH]c(CN5CCC[C@@H]5C)nc4c3)cn12
[2]
  inhibition: 84.5%
[5]
  pIC50: 6.57
[9]
  inhibition: 57%

## C[C@H]1CCCN1Cc1nc2cc(NC(=O)c3ccc4nn(C5CCCC5)cc4c3)ccc2[nH]1
[2]
  inhibition: 96.1%
[5]
  pIC50: 7.15
[9]
  inhibition: 51%

## C[C@H]1CCCN1Cc1nc2cc(NC(=O)c3ccc4c(c3)c3ccccc3c(=O)n4C)ccc2[nH]1
[20]
  Activity: inactive
[21]
  Activity: Non-Toxic
[22]
  Activity: 50%
[14]
  AUC(0-inf): 272 ng·h/mL
[15]
  Cmax: 71.8 ng/mL
[2]
  inhibition: 100%
[16]
  MRT inf: 330 min
[3]
  ΔTm: 3.3 °C
[23]
  Activity: Non-Toxic
[24]
  fold change (FC): >5
[4]
  pIC50: 5.08
[25]
  pKd: 7.77
[5]
  pIC50: 7.81
[26]
  Activity: inactive
[17]
  Tmax: 30 min
[18]
  half-life: 312 min
[6]
  ΔTm: 5.5 °C
[19]
  AUC(0-t): 257 ng·h/mL
[7]
  ΔTm: 1.9 °C
[27]
  fold change (FC): <2.5
[8]
  Ratio IC50: 9
[11]
  pIC50: 5.32
[9]
  inhibition: 99.6%
[10]
  ΔTm: 4.3 °C

## C[C@H]1CCCN1Cc1nc2cc(NC(=O)c3ccc4c5ccccc5n(C)c4c3)ccc2[nH]1
[2]
  inhibition: 96.5%
[5]
  pIC50: 7.14
[9]
  inhibition: 85.4%
